Reference: patent US8889667B2 (Agios Pharmaceuticals, Inc, priority 2010, dated 2014)

molecular target: PKM2 (Homo sapiens, UniProt P14618); assay: PKM2 Assay (activation, LDH-coupled, absorbance at 340 nm); format: biochemical; conditions: Table 5
Summary of the method: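 Read-out was the 340 nm NADH absorbance change at 25 °C in an LDH-coupled system (PEP 0.15 mM, NADH 180 μM, ADP 0.7 mM to initiate) in 50 mM Tris pH 7.5, 100 mM KCl, 5 mM MgCl2. PKM2 at 50 ng/well was first preincubated with compound for 30 min at 4 °C. Activation given as AC50.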

Chain of PKM2 (P14618 whole entry): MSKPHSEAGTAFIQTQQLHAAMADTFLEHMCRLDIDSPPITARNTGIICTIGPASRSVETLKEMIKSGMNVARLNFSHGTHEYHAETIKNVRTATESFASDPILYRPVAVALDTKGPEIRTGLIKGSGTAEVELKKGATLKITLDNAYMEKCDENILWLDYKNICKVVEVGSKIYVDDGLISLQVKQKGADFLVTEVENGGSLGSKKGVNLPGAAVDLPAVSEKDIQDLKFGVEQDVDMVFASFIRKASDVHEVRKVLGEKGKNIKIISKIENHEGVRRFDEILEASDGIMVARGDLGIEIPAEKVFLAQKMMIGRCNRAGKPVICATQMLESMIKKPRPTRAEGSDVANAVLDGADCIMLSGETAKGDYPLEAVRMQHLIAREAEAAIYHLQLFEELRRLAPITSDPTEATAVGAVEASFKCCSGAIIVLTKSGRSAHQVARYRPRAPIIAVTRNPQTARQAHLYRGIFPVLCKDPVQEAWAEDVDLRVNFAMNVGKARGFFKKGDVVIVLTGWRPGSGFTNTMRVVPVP

Row | AC50 | Structure (SMILES)
1 | 500 to 1000 nM | COc1cccc(F)c1CN1CCN(C(=O)c2ccc(NS(=O)(=O)c3cccc4cccnc34)c(OC(F)(F)F)c2)CC1 [Compound 308, N-(4-(4-(2-fluoro-6-methoxybenzyl)piperazine-1-carbonyl)-2-(trifluoromethoxy)phenyl)quinoline-8-sulfonamide]
2 | 1000 to 20000 nM | O=C(c1ccc(NS(=O)(=O)c2cccc3cccnc23)c(OC(F)(F)F)c1)N1CCN(Cc2ncccc2C(F)(F)F)CC1 [Compound 309, N-(2-(trifluoromethoxy)-4-(4-((3-(trifluoromethyl)pyridin-2-yl)methyl)piperazine-1-carbonyl)phenyl)quinoline-8-sulfonamide]
3 | 100 to 500 nM | COc1ccc(CN2CCN(C(=O)c3ccc(NS(=O)(=O)c4cccc5cccnc45)c(OC(F)(F)F)c3)CC2)cc1 [Compound 310, N-(4-(4-(4-methoxybenzyl)piperazine-1-carbonyl)-2-(trifluoromethoxy)phenyl)quinoline-8-sulfonamide]
4 | 1000 to 20000 nM | O=C(O[C@@H]1CCOC1)N1CCN(C(=O)c2ccc(NS(=O)(=O)c3cccc4cccnc34)c(OC(F)(F)F)c2)CC1 [Compound 311]
5 | 500 to 1000 nM | O=C(OCCC1CCCC1)N1CCN(C(=O)c2ccc(NS(=O)(=O)c3cccc4cccnc34)c(OC(F)(F)F)c2)CC1 [Compound 312, 2-cyclopentylethyl-4-(4-(quinoline-8-sulfonamido)-3-(trifluoromethoxy)benzoyl)piperazine-1-carboxylate]
6 | < 100 nM | O=C(c1ccc(NS(=O)(=O)c2cccc3cccnc23)cc1)N1CCN(C(=O)c2cnns2)CC1 [Compound 313, N-(4-(4-(1,2,3-thiadiazole-5-carbonyl)piperazine-1-carbonyl)phenyl)quinoline-8-sulfonamide]
7 | 1000 to 20000 nM | O=C(OC1CCOCC1)N1CCN(C(=O)c2ccc(NS(=O)(=O)c3cccc4cccnc34)c(OC(F)(F)F)c2)CC1 [Compound 314, tetrahydro-2H-pyran-4-yl-4-(4-(quinoline-8-sulfonamido)-3-(trifluoromethoxy)benzoyl)piperazine-1-carboxylate]
8 | 100 to 500 nM | COc1cc(C(=O)N2CCN(C(=O)Oc3ccccn3)CC2)ccc1NS(=O)(=O)c1cccc2cccnc12 [Compound 315, Pyridin-2-yl 4-(3-methoxy-4-(quinoline-8-sulfonamido)benzoyl)piperazine-1-carboxylate]
9 | 1000 to 20000 nM | O=C(OCC1CCCO1)N1CCN(C(=O)c2ccc(NS(=O)(=O)c3cccc4cccnc34)c(OC(F)(F)F)c2)CC1 (stereo not shown) [Compound 316, (tetrahydrofuran-2-yl)methyl-4-(4-(quinoline-8-sulfonamido)-3-(trifluoromethoxy)benzoyl)piperazine-1-carboxylate]
10 | < 100 nM | O=C(c1ccc(NS(=O)(=O)c2cccc3cccnc23)cc1)N1CCN(C(=O)c2ccncc2F)CC1 [Compound 317, N-(4-(4-(3-fluoroisonicotinoyl)piperazine-1-carbonyl)phenyl)quinoline-8-sulfonamide]
11 | 100 to 500 nM | COc1cc(C(=O)N2CCN(C(=O)c3cccc(F)c3F)CC2)ccc1NS(=O)(=O)c1cccc2cccnc12 [Compound 318, N-(4-(4-(2,3-difluorobenzoyl)piperazine-1-carbonyl)-2-methoxyphenyl)quinoline-8-sulfonamide]
12 | 100 to 500 nM | COc1cc(C(=O)N2CCN(C(=O)c3ccc(F)c(F)c3)CC2)ccc1NS(=O)(=O)c1cccc2cccnc12 [Compound 319, N-(4-(4-(3,4-difluorobenzoyl)piperazine-1-carbonyl)-2-methoxyphenyl)quinoline-8-sulfonamide]
13 | 100 to 500 nM | COc1cc(C(=O)N2CCN(C(=O)c3cccc(OC)c3F)CC2)ccc1NS(=O)(=O)c1cccc2cccnc12 [Compound 320, N-(4-(4-(2-fluoro-3-methoxybenzoyl)piperazine-1-carbonyl)-2-methoxyphenyl)quinoline-8-sulfonamide]
14 | 100 to 500 nM | COc1cc(C(=O)N2CCN(C(=O)c3csnn3)CC2)ccc1NS(=O)(=O)c1cccc2cccnc12 [Compound 321, N-(4-(4-(1,2,3-thiadiazole-4-carbonyl)piperazine-1-carbonyl)-2-methoxyphenyl)quinoline-8-sulfonamide]
15 | 100 to 500 nM | COc1cc(C(=O)N2CCN(C(=O)c3cscn3)CC2)ccc1NS(=O)(=O)c1cccc2cccnc12 [Compound 322, N-(2-methoxy-4-(4-(thiazole-4-carbonyl)piperazine-1-carbonyl)phenyl)quinoline-8-sulfonamide]
16 | 500 to 1000 nM | O=C(c1cccnc1)N1CCN(C(=O)c2ccc(NS(=O)(=O)c3cccc4cccnc34)c(OC(F)(F)F)c2)CC1 [Compound 323, N-(4-(4-nicotinoylpiperazine-1-carbonyl)-2-(trifluoromethoxy)phenyl)quinoline-8-sulfonamide]
17 | 100 to 500 nM | O=C(c1ccc(NS(=O)(=O)c2cccc3cccnc23)c(OC(F)(F)F)c1)N1CCN(C(=O)c2cscn2)CC1 [Compound 324, N-(4-(4-(thiazole-4-carbonyl)piperazine-1-carbonyl)-2-(trifluoromethoxy)phenyl)quinoline-8-sulfonamide]

Row | AC50 | Structure (SMILES)
18 | 1000 to 20000 nM | Cc1cnc(C(=O)N2CCN(C(=O)c3ccc(NS(=O)(=O)c4cccc5cccnc45)c(OC(F)(F)F)c3)CC2)cn1 [Compound 325]
19 | 100 to 500 nM | O=C(c1cc(F)cc(F)c1)N1CCN(C(=O)c2ccc(NS(=O)(=O)c3cccc4cccnc34)c(OC(F)(F)F)c2)CC1 [Compound 326, N-(4-(4-(3,5-difluorobenzoyl)piperazine-1-carbonyl)-2-(trifluoromethoxy)phenyl)quinoline-8-sulfonamide]
20 | 500 to 1000 nM | O=C(c1ccc(NS(=O)(=O)c2cccc3cccnc23)c(OC(F)(F)F)c1)N1CCN(C(=O)c2cocn2)CC1 [Compound 327]
21 | 1000 to 20000 nM | O=C(c1ccc(NS(=O)(=O)c2cccc3cccnc23)c(C(F)(F)F)c1)N1CCN(Cc2ccncc2)CC1 [Compound 328, N-(4-(4-(pyridin-4-ylmethyl)piperazine-1-carbonyl)-2-(trifluoromethyl)phenyl)quinoline-8-sulfonamide]
22 | 1000 to 20000 nM | O=C(c1ccc(NS(=O)(=O)c2cccc3cccnc23)c(C(F)(F)F)c1)N1CCN(CC2CCCO2)CC1 (stereo not shown) [Compound 329, N-(4-(4-((tetrahydrofuran-2-yl)methyl)piperazine-1-carbonyl)-2-(trifluoromethyl)phenyl)quinoline-8-sulfonamide]
23 | < 100 nM | O=C(c1ccc(NS(=O)(=O)c2cccc3cccnc23)cc1)N1CCN(C2(c3ccccc3)CC2)CC1 [Compound 330, N-(4-(4-(1-phenylcyclopropyl)piperazine-1-carbonyl)phenyl)quinoline-8-sulfonamide]
24 | < 100 nM | CC(c1cc(F)cc(F)c1)N1CCN(C(=O)c2ccc(NS(=O)(=O)c3cccc4cccnc34)cc2)CC1 (stereo not shown) [Compound 331, N-(4-(4-(1-(3,5-difluorophenyl)ethyl)piperazine-1-carbonyl)phenyl)quinoline-8-sulfonamide]
25 | < 100 nM | CC(c1ccc(F)c(Cl)c1)N1CCN(C(=O)c2ccc(NS(=O)(=O)c3cccc4cccnc34)cc2)CC1 (stereo not shown) [Compound 332, N-(4-(4-(1-(3-chloro-4-fluorophenyl)ethyl)piperazine-1-carbonyl)phenyl)quinoline-8-sulfonamide]
26 | 500 to 1000 nM | COc1ccc(CN2CCN(C(=O)c3ccc(NS(=O)(=O)c4cccc5cccnc45)c(OC(F)(F)F)c3)CC2)c(OC)c1 [Compound 333, N-(4-(4-(2,4-dimethoxybenzyl)piperazine-1-carbonyl)-2-(trifluoromethoxy)phenyl)quinoline-8-sulfonamide]
27 | 100 to 500 nM | O=C(c1ccc(NS(=O)(=O)c2cccc3cccnc23)c(OC(F)(F)F)c1)N1CCN(Cc2ccc(C(F)(F)F)cc2)CC1 [Compound 334, N-(2-(trifluoromethoxy)-4-(4-(4-(trifluoromethyl)benzyl)piperazine-1-carbonyl)phenyl)quinoline-8-sulfonamide]
28 | 100 to 500 nM | O=C(c1ccc(NS(=O)(=O)c2cccc3cccnc23)c(OC(F)(F)F)c1)N1CCN(Cc2ccccc2F)CC1 [Compound 335, N-(4-(4-(2-fluorobenzyl)piperazine-1-carbonyl)-2-(trifluoromethoxy)phenyl)quinoline-8-sulfonamide]
29 | 500 to 1000 nM | O=C(c1ccc(NS(=O)(=O)c2cccc3cccnc23)c(OC(F)(F)F)c1)N1CCN(CC2CCCC2)CC1 [Compound 336, N-(4-(4-(cyclopentylmethyl)piperazine-1-carbonyl)-2-(trifluoromethoxy)phenyl)quinoline-8-sulfonamide]
30 | 1000 to 20000 nM | O=C(c1ccc(NS(=O)(=O)c2cccc3cccnc23)c(OC(F)(F)F)c1)N1CCN(Cc2ccc(F)cc2)CC1 [Compound 337, N-(4-(4-(4-fluorobenzyl)piperazine-1-carbonyl)-2-(trifluoromethoxy)phenyl)quinoline-8-sulfonamide]
31 | 100 to 500 nM | O=C(c1ccc(NS(=O)(=O)c2cccc3cccnc23)c(OC(F)(F)F)c1)N1CCN(Cc2ccc(Cl)cc2)CC1 [Compound 338, N-(4-(4-(4-chlorobenzyl)piperazine-1-carbonyl)-2-(trifluoromethoxy)phenyl)quinoline-8-sulfonamide]
32 | 100 to 500 nM | O=C(c1ccc(NS(=O)(=O)c2cccc3cccnc23)c(OC(F)(F)F)c1)N1CCN(Cc2ccc(Cl)cc2F)CC1 [Compound 339, N-(4-(4-(4-chloro-2-fluorobenzyl)piperazine-1-carbonyl)-2-(trifluoromethoxy)phenyl)quinoline-8-sulfonamide]
33 | 100 to 500 nM | CC(C)(c1ccccc1)N1CCN(C(=O)c2ccc(NS(=O)(=O)c3cccc4cccnc34)c(OC(F)(F)F)c2)CC1 [Compound 340, N-(4-(4-(2-phenylpropan-2-yl)piperazine-1-carbonyl)-2-(trifluoromethoxy)phenyl)quinoline-8-sulfonamide]
34 | < 100 nM | O=C(c1ccc(NS(=O)(=O)c2cccc3cccnc23)cc1)N1CCN(Cc2ccc(F)cc2)CC1 [Compound 341, N-(4-(4-(4-fluorobenzyl)piperazine-1-carbonyl)phenyl)quinoline-8-sulfonamide]
